Earlier results in US12721837B2, “Stable pharmaceutical compositions of clonidine” (AZURITY PHARMACEUTICALS, INC., priority 2021, dated 2026).

Legend:
[1] = after oral administration

Absorption from the gastrointestinal tract [1]: almost completely absorbed
Solubility in water: freely soluble
SMILES: Clc1cccc(Cl)c1N=C1NCCN1 [Clonidine, N-(2,6-dichlorophenyl)-4,5-dihydro-1H-imidazol-2-amine]
